One compound from US20080103205A1, “Pesticidal compositions and methods of use” (priority 2006, published 2008) can be followed below.

The subject of this assay is H. bacteriophora. As to the kind of experiment: Initial petri dish toxicity assay / preliminary studies, H. bacteriophora. As to conditions: initial petri dish assays / preliminary studies. Type of assay: in vivo, Heterorhabditis bacteriophora. The text has this: The stilbene nucleus is a simple chemical scaffold, and excellent gains in potency can be envisioned from appropriate chemical modification. In addition, other compounds having a similar mode of action have been described, including NPPB, IAA-94, and 9-AC (FIGS. 1-3). This Example 1 describes further toxicity studies with these compounds.
This broad cross resistance supports a role for AT blockers in the action of these compounds.

`O=S(=O)(O)c1cc(N=C=S)ccc1/C=C/c1ccc(N=C=S)cc1S(=O)(=O)O` [DIDS, trans-4,4′-diisothiocyanatostilbene-2,2′-disulfonic acid, reference compound]: the “paralytic/lethal effect, sensitivity” value is “less sensitive”.
